The target of one assay is T1, TLR8 (Homo sapiens, UniProt Q9NR97).
T1 construct: host or cells: HEK-Blue cells (human HEK) co-expressing TLR8 and an NF-kB/AP1-inducible SEAP reporter
T1 sequence (Q9NR97 27-1041): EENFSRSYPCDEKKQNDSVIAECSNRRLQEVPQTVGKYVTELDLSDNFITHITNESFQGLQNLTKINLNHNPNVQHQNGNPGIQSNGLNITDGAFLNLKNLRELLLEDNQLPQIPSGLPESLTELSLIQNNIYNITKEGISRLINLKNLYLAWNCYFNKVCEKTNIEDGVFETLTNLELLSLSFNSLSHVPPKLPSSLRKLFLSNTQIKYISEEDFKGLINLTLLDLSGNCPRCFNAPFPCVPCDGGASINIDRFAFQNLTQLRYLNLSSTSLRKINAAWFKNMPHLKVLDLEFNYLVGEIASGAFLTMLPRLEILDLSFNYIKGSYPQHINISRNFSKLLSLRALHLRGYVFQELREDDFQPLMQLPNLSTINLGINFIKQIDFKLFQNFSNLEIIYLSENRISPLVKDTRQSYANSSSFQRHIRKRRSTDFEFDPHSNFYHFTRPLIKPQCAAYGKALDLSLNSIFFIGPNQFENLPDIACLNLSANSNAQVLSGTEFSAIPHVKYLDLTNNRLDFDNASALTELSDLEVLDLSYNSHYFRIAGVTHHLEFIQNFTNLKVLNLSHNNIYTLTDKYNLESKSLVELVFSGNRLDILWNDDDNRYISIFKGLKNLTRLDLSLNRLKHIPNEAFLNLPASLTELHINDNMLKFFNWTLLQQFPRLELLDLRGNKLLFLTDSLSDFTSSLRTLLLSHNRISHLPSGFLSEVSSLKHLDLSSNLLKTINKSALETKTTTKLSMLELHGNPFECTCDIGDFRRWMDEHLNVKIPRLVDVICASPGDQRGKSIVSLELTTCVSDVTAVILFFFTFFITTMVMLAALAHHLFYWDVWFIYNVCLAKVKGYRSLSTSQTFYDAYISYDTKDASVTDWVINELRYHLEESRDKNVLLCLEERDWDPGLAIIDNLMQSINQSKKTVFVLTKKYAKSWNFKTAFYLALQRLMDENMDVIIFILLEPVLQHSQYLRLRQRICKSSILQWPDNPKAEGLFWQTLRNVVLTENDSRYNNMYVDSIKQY
Nature of the assay: In vitro human TLR8 binding reporter assay (HEK-Blue, NF-kB/AP1-inducible SEAP). The assay is classed as cell-based. The method in brief: (§1)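 Reporter cells are plated at 15,000 per well and rested 24 h. Next day, test compounds or DMSO are dispensed, followed by 18 h incubation at 37 °C, 5% CO2.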

Another assay deals with T2, TLR7 (Homo sapiens, UniProt Q9NYK1).
T2 construct: host or cells: HEK-Blue cells (human HEK) co-expressing TLR7 and an NF-kB/AP1-inducible SEAP reporter
T2 sequence (Q9NYK1 27-1049): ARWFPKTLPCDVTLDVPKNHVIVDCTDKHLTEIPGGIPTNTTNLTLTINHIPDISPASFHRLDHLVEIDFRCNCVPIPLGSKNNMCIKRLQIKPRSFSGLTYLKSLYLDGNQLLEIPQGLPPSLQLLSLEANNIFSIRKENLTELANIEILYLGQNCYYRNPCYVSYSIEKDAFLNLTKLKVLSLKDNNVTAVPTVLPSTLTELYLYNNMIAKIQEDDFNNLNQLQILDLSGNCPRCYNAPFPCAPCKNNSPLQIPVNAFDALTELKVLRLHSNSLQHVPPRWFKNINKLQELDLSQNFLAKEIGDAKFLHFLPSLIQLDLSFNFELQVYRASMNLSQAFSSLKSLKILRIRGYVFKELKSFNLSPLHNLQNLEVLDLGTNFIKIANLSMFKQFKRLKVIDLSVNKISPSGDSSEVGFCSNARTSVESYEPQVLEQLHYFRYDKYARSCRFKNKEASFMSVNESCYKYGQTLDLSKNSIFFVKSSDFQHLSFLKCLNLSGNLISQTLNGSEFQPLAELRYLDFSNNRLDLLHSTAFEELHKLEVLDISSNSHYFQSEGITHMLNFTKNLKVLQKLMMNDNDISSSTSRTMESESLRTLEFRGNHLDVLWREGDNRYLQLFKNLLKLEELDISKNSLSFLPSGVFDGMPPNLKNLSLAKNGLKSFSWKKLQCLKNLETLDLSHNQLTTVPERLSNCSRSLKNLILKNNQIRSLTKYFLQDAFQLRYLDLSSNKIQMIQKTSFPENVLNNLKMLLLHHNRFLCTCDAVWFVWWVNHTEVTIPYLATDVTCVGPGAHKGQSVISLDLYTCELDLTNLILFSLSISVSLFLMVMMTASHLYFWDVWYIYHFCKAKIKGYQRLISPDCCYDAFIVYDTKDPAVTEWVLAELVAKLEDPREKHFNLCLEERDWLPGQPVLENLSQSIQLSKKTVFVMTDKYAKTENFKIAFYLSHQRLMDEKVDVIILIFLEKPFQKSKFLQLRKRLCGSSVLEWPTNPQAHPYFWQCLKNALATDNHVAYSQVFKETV
Description: In vitro human TLR7 binding reporter assay (HEK-Blue, NF-kB/AP1-inducible SEAP). The assay is classed as cell-based. The method in brief: as §1

Take `Nc1nc2cc(-n3cccn3)ccc2c2[nH]c(CN3C[C@@H](c4ccccc4)CC3=O)nc12` [Compound 357]: the 50% effective concentration (EC50) at TLR8 (activity range symbols) and on TLR7 (activity range symbols) was > 100 µM throughout.
As to `Nc1nc2cc(-n3cccn3)ccc2c2[nH]c(CN3C[C@H](c4ccccc4)CC3=O)nc12` [Compound 358], the EC50 on TLR8 (activity range symbols) and at TLR7 (activity range symbols) was > 100 µM each time.
`Nc1nc2cc(-c3cc[nH]n3)ccc2c2[nH]c(CN3C(=O)OCC3c3ccccc3)nc12` (centres unmarked) [Compound 363]: the EC50 on TLR8 (activity range symbols) and at TLR7 (activity range symbols) was > 100 µM throughout.
`Nc1nc2cc(-c3cc[nH]n3)ccc2c2[nH]c(CN3CCOC3=O)nc12` [Compound 365]: the concentration giving a half-maximal response (EC50) on TLR8 (activity range symbols) and at TLR7 (activity range symbols) was > 100 µM each time.
As for `CN1CCN(Cc2nc3c(N)nc4cc(-c5cc[nH]n5)ccc4c3[nH]2)C1=O` [Compound 368], the EC50 on TLR8 (activity range symbols) and on TLR7 (activity range symbols) was > 100 µM throughout.
For the compound `CN(Cc1nc2c(N)nc3cc(-c4cc[nH]n4)ccc3c2[nH]1)C(=O)CO` [Compound 370], the half-maximal effective concentration (EC50) at TLR8 (activity range symbols) and at TLR7 (activity range symbols) was > 100 µM each time.
Take `CN(Cc1nc2c(N)nc3cc(-c4cc[nH]n4)ccc3c2[nH]1)C(=O)CN` [Compound 372]: the EC50 on TLR8 (activity range symbols) and at TLR7 (activity range symbols) was > 100 µM each time.
As for `CN(C)C(=O)N(C)Cc1nc2c(N)nc3cc(-c4cc[nH]n4)ccc3c2[nH]1` [Compound 375], the EC50 at TLR8 (activity range symbols) and at TLR7 (activity range symbols) was > 100 µM each time.
As to `CN(Cc1nc2c(N)nc3cc(-c4cc[nH]n4)ccc3c2[nH]1)C(=O)c1ccccc1` [Compound 376], the EC50 at TLR8 (activity range symbols) and on TLR7 (activity range symbols) was > 100 µM throughout.
On to `CN(Cc1nc2c(N)nc3cc(-c4cc[nH]n4)ccc3c2[nH]1)C(=O)c1nccs1` [Compound 377], for which the 50% effective concentration (EC50) at TLR8 (activity range symbols) and on TLR7 (activity range symbols) was > 100 µM each time.
Regarding `CCN(C=O)Cc1nc2c(N)nc3cc(-c4cc[nH]n4)ccc3c2[nH]1` [Compound 379], the EC50 on TLR8 (activity range symbols) and on TLR7 (activity range symbols) was > 100 µM each time.
As for `CCN(Cc1nc2c(N)nc3cc(-c4cc[nH]n4)ccc3c2[nH]1)C(=O)CN(C)C` [Compound 383], the EC50 on TLR8 (activity range symbols) and on TLR7 (activity range symbols) was > 100 µM throughout.
As to `CCN(Cc1nc2c(N)nc3cc(-c4ccn(C)n4)ccc3c2[nH]1)C(=O)OC(C)(C)C` [Compound 393], the EC50 on TLR8 (activity range symbols) and at TLR7 (activity range symbols) was > 100 µM throughout.
On to `CCN(Cc1nc2c(N)nc3cc(-c4ccsc4)ccc3c2[nH]1)C(=O)OC(C)(C)C` [Compound 397], for which the 50% effective concentration (EC50) on TLR8 (activity range symbols) and at TLR7 (activity range symbols) was > 100 µM in each case.
For `CCNCc1nc2c(N)nc3cc(-n4cccn4)ccc3c2[nH]1` [Compound 398], the half-maximal effective concentration (EC50) at TLR8 (activity range symbols) and on TLR7 (activity range symbols) was > 100 µM throughout.
As for `CCNCc1nc2c(N)nc3cc(-c4cccs4)ccc3c2[nH]1` [Compound 399], the EC50 at TLR8 (activity range symbols) and on TLR7 (activity range symbols) was > 100 µM each time.
Turning to `CCNCc1nc2c(N)nc3cc(-c4ccsc4)ccc3c2[nH]1` [Compound 400], the EC50 on TLR8 (activity range symbols) and on TLR7 (activity range symbols) was > 100 µM in each case.
For `CNCc1nc2c(N)nc3cc(-c4cc[nH]n4)ccc3c2[nH]1` [Compound 401], the EC50 at TLR8 (activity range symbols) and at TLR7 (activity range symbols) was > 100 µM each time.
For the compound `CNCc1nc2c(N)nc3cc(-n4cccn4)ccc3c2[nH]1` [Compound 402], the EC50 at TLR8 (activity range symbols) and on TLR7 (activity range symbols) was > 100 µM each time.
For `COc1ccc(Cn2c(CN3CCN(C)C3=O)nc3c(N)nc4cc(-c5cc[nH]n5)ccc4c32)cc1` [Compound 403], the 50% effective concentration (EC50) at TLR8 (activity range symbols) and at TLR7 (activity range symbols) was > 100 µM each time.
Consider `COc1ccc(Cn2c(CN3C(=O)OCC3COCc3ccccc3)nc3c(N)nc4cc(-c5cc[nH]n5)ccc4c32)cc1` (centres unmarked) [Compound 404], for which the EC50 on TLR8 (activity range symbols) and at TLR7 (activity range symbols) was > 100 µM each time.
With `COC(=O)N(C)Cc1nc2c(N)nc3cc(-c4cc[nH]n4)ccc3c2[nH]1` [Compound 405], the EC50 at TLR8 (activity range symbols) and at TLR7 (activity range symbols) was > 100 µM throughout.
`CCN(Cc1nc2c(N)nc3cc(-c4cc[nH]n4)ccc3c2[nH]1)C(=O)OC` [Compound 406]: the EC50 on TLR8 (activity range symbols) and at TLR7 (activity range symbols) was > 100 µM throughout.
With `Nc1nc2cc(-c3cc[nH]n3)ccc2c2[nH]c(CN3C[C@@H](c4ccccc4)CC3=O)nc12` [Compound 407], the concentration for a half-maximal effect (EC50) at TLR8 (activity range symbols) and at TLR7 (activity range symbols) was > 100 µM each time.
Take `Nc1nc2cc(-c3cc[nH]n3)ccc2c2[nH]c(CN3C[C@H](c4ccccc4)CC3=O)nc12` [Compound 408]: the concentration giving a half-maximal response (EC50) at TLR8 (activity range symbols) and on TLR7 (activity range symbols) was > 100 µM in each case.
For `COc1ccc(Cn2c(CN3C(=O)OCC3c3ccccc3)nc3c(N)nc4cc(-c5cc[nH]n5)ccc4c32)cc1` (centres unmarked) [Compound 409], the EC50 at TLR8 (activity range symbols) and on TLR7 (activity range symbols) was > 100 µM in each case.
With `COc1ccc(Cn2c(Cn3cnccc3=O)nc3c(N)nc4cc(-c5cc[nH]n5)ccc4c32)cc1` [Compound 414], the EC50 at TLR8 (activity range symbols) and at TLR7 (activity range symbols) was > 100 µM in each case.
For `CCN(Cc1nc2c(N)nc3cc(-c4cc[nH]n4)ccc3c2[nH]1)C(=O)C1COC1` [Compound 417], the concentration giving a half-maximal response (EC50) on TLR8 (activity range symbols) and on TLR7 (activity range symbols) was > 100 µM each time.
With `CCN(Cc1nc2c(N)nc3cc(-c4ccsc4)ccc3c2[nH]1)C(C)=O` [Compound 419, N-((4-Amino-7-(thiophen-3-yl)-1H-imidazo[4,5-c]quinolin-2-yl)methyl)-N-ethylacetamide], the EC50 at TLR8 (activity range symbols) and on TLR7 (activity range symbols) was > 100 µM throughout.
Turning to `CCN(Cc1nc2c(N)nc3cc(-c4cc[nH]n4)ccc3c2n1C)C(=O)OC(C)(C)C` [Compound 420], the EC50 at TLR8 (activity range symbols) and at TLR7 (activity range symbols) was > 100 µM in each case.
As to `CCN(Cc1nc2c(N)nc3cc(-c4ccc(C)cc4)ccc3c2[nH]1)C(C)=O` [Compound 422], the EC50 on TLR8 (numeric bounds) and at TLR7 (numeric bounds) was > 10 µM each time.
For the compound `Nc1nc2cc(-n3cccn3)ccc2c2[nH]c(CN3CCCCC3=O)nc12` [Compound 423], the half-maximal effective concentration (EC50) on TLR8 (activity range symbols) and on TLR7 (activity range symbols) was > 100 µM in each case.
As to `CCN(Cc1nc2c(N)nc3cc(-c4cncc(F)c4)ccc3c2[nH]1)C(C)=O` [Compound 427], the EC50 on TLR8 (activity range symbols) and on TLR7 (activity range symbols) was > 100 µM throughout.
Turning to `CCN(Cc1nc2c(N)nc3cc(Br)ccc3c2n1CC(C)C)C(C)=O` [Compound 430], the EC50 on TLR8 (numeric bounds) was > 10 µM; at TLR7 (activity range symbols) it was > 100 µM.
With `CCN(Cc1nc2c(N)nc3cc(Br)ccc3c2n1CCCOC)C(C)=O` [Compound 431], the figures for the concentration giving a half-maximal response (EC50) on TLR8 (numeric bounds) and at TLR7 (activity range symbols) were > 10 µM and > 100 µM, respectively.
In the case of `N#Cc1ccc(-c2ccc3c(c2)nc(N)c2nc(CN4CCCC4=O)[nH]c23)cc1` [Compound 434], the EC50 on TLR8 (numeric bounds) and on TLR7 (numeric bounds) was > 30 µM in each case.
As for `CCOC(=O)N(CC)Cc1nc2c(N)nc3cc(-c4cc[nH]n4)ccc3c2[nH]1` [Compound 436, Ethyl N-{[4-amino-7-(1H-pyrazol-3-yl)-1H-imidazo[4,5-c]quinolin-2-yl]methyl}-N-ethylcarbamate], the half-maximal effective concentration (EC50) at TLR8 (numeric bounds) and at TLR7 (numeric bounds) was > 50 µM in each case.
